These results are taken from PubChem BioAssay (NCI).

The structures appear in SMILES notation. Values joined by “and” are separate entries in the source; they are usually repeats but may differ in a detail not shown here. Equal values may be shown once.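 Where inhibition never reached the appropriate level, the endpoint shown equals the highest concentration tested. Otherwise, values were interpolated linearly from a five-concentration, 48-hour dose response in 96-well plates. The concentration for 50% growth inhibition is given as GI50. At the TGI there is no net growth.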

Test systems include OVCAR-8 ovarian; CAKI-1 renal; ACHN renal; OVCAR-5 ovarian; MALME-3M melanoma; BT-549 breast; MDA-MB-231 breast; SK-MEL-2 melanoma.
Assay in all cases: NCI anticancer screen, dose series, 48 h

Consider `CCCCN=C(N)c1ccc(N2CCCN(c3ccc(C(N)=NCCCC)cc3)CC2)cc1`, for which the GI50 in the test with OVCAR-8 ovarian was 14100 nM; in the test with CAKI-1 renal, above 72300 nM; with ACHN renal, above 21900 nM; in the test with OVCAR-5 ovarian, 45700 nM; with MALME-3M melanoma, 1000 nM; in the test on BT-549 breast it was 14400 nM. The GI50 in the test with MDA-MB-231 breast was 27700 nM; in the test on SK-MEL-2 melanoma, 12300 nM. In addition, the TGI with OVCAR-8 ovarian was above 100 µM; with CAKI-1 renal, above 100 µM; in the test with ACHN renal it was above 100 µM; in the test with OVCAR-5 ovarian it was above 100 µM; in the test on MALME-3M melanoma, 26.2 µM; in the test with BT-549 breast, above 58.3 µM. The figures for the TGI with MDA-MB-231 breast and in the test on SK-MEL-2 melanoma were above 100 µM and 44.6 µM, respectively.
`O=c1c2ccccc2nc(-c2ccccc2Cl)n1-c1nnc(C(F)(F)F)s1`: the GI50 in the test on OVCAR-8 ovarian is 3370 nM; in the test with CAKI-1 renal it was 2820 nM; with ACHN renal, 3740 nM; with OVCAR-5 ovarian, 4330 nM; in the test on MALME-3M melanoma, 2510 nM; in the test on BT-549 breast, 3360 nM. Moreover, the GI50 with MDA-MB-231 breast was 2590 nM; in the test on SK-MEL-2 melanoma it was 2720 nM. The TGI with OVCAR-8 ovarian was above 100 µM; with CAKI-1 renal, 10.1 µM; in the test with ACHN renal, 27.7 µM; with OVCAR-5 ovarian it was 43.8 µM; in the test on MALME-3M melanoma, 7.35 µM; in the test on BT-549 breast, 10.9 µM. Also, the values for the TGI with MDA-MB-231 breast and in the test on SK-MEL-2 melanoma were 9.38 µM and 6.27 µM, respectively.
Regarding `Nc1cc(C(F)(F)F)c(-c2cc(N3CCOCC3)nc(N3CCOCC3)n2)cn1`, the GI50 with OVCAR-8 ovarian was 1670 nM and 1550 nM; in the test with CAKI-1 renal, 441 nM and 806 nM; in the test on ACHN renal, 906 nM and 1140 nM; with OVCAR-5 ovarian, 692 nM and 848 nM; with MALME-3M melanoma, 325 nM and 369 nM; with BT-549 breast it was 558 nM and 727 nM. The GI50 in the test with MDA-MB-231 breast was 1260 nM and 2060 nM; in the test on SK-MEL-2 melanoma it was 678 nM and 385 nM. Also, the TGI in the test with OVCAR-8 ovarian was > 9.24 µM and 11.8 µM; in the test on CAKI-1 renal, 4.05 µM and > 24.3 µM; in the test on ACHN renal it was above 100 µM; with OVCAR-5 ovarian it was 7.16 µM and 8.7 µM; with MALME-3M melanoma, 2.53 µM and 4.95 µM; in the test with BT-549 breast, > 7.16 µM and 6.67 µM. Further, the TGI in the test on MDA-MB-231 breast is > 8.48 µM and 11.9 µM; with SK-MEL-2 melanoma, 3.39 µM and 2.27 µM.
As for `CCN(CC)CCN1C(=O)C2C3C(=O)CC(C)(CC3C)C2C1=O` (stereo not drawn), the GI50 in the test on OVCAR-8 ovarian, with CAKI-1 renal, in the test with ACHN renal, in the test with OVCAR-5 ovarian, in the test with MALME-3M melanoma and in the test on BT-549 breast was above 100000 nM in each case. The GI50 in the test with MDA-MB-231 breast and with SK-MEL-2 melanoma was above 100000 nM each time. Besides, the TGI in the test with OVCAR-8 ovarian, with CAKI-1 renal, with ACHN renal, with OVCAR-5 ovarian, in the test with MALME-3M melanoma and in the test with BT-549 breast was above 100 µM each time. Moreover, the TGI in the test on MDA-MB-231 breast and with SK-MEL-2 melanoma was above 100 µM each time.
`CCN(CC)c1ccc2nc3c4ccccc4c(=O)cc-3n(-c3ccccc3)c2c1`: the GI50 in the test on OVCAR-8 ovarian is 1750 nM; in the test with CAKI-1 renal, 1320 nM; in the test on ACHN renal, 2130 nM; with OVCAR-5 ovarian it was 2920 nM; with MALME-3M melanoma, 1400 nM; in the test on BT-549 breast, 1950 nM. The GI50 in the test with MDA-MB-231 breast was 2220 nM; in the test on SK-MEL-2 melanoma it was 1420 nM. Besides, the TGI is 5.11 µM in the test on OVCAR-8 ovarian; 4.52 µM with CAKI-1 renal; 14.9 µM with ACHN renal; above 100 µM in the test on OVCAR-5 ovarian; 3.56 µM with MALME-3M melanoma; 5.06 µM with BT-549 breast. In addition, the TGI in the test on MDA-MB-231 breast came to 8.2 µM; in the test with SK-MEL-2 melanoma it was 3.95 µM.
In the case of `Cc1ccc(Cl)cc1NC(=O)c1cc2ccccc2cc1O`, the GI50 was 356 nM in the test with OVCAR-8 ovarian; 219 nM with CAKI-1 renal; 351 nM in the test on ACHN renal; 992 nM in the test on OVCAR-5 ovarian; 211 nM in the test on MALME-3M melanoma; 294 nM with BT-549 breast. Moreover, the GI50 in the test on MDA-MB-231 breast is 377 nM; in the test on SK-MEL-2 melanoma, 190 nM. The TGI was determined as 12.4 µM in the test on OVCAR-8 ovarian; 0.921 µM in the test with CAKI-1 renal; 2.8 µM in the test on ACHN renal; 10.7 µM in the test on OVCAR-5 ovarian; 0.692 µM in the test on MALME-3M melanoma; 1.28 µM with BT-549 breast. For the same compound, the TGI came out at 2.06 µM with MDA-MB-231 breast and 0.707 µM in the test with SK-MEL-2 melanoma.
Turning to `CN(C)C=NC1CCC(C(C)(C)C)CC1` (stereo not drawn), the TGI in the test on OVCAR-8 ovarian is 28.9 µM; in the test with CAKI-1 renal, 33.1 µM; in the test with ACHN renal, 43.8 µM; in the test on OVCAR-5 ovarian, 37.2 µM; in the test with MALME-3M melanoma it was 34.9 µM; in the test on BT-549 breast, 34 µM. For the same compound, the results for the TGI in the test on MDA-MB-231 breast and in the test with SK-MEL-2 melanoma were 26.7 µM and 35.4 µM, respectively.
With `O=CNc1ccc(S(=O)(=O)c2ccc(NC=O)cc2)cc1`, the TGI with OVCAR-8 ovarian, in the test on CAKI-1 renal, in the test with ACHN renal, in the test on OVCAR-5 ovarian, with MALME-3M melanoma and with BT-549 breast was above 100 µM throughout. The TGI with MDA-MB-231 breast and with SK-MEL-2 melanoma was above 100 µM throughout.
Take `O=C(COc1ccc(OCC(=O)N2C(=O)CN(c3ccccc3)C2=S)cc1)N1C(=O)CN(c2ccccc2)C1=S`: the GI50 in the test with OVCAR-8 ovarian was above 25000 nM; with CAKI-1 renal it was above 25000 nM; in the test with ACHN renal it was above 25000 nM; with OVCAR-5 ovarian, above 25000 nM; in the test on MALME-3M melanoma, 36700 nM; in the test with MDA-MB-231 breast, above 25000 nM. Besides, the GI50 in the test on SK-MEL-2 melanoma was above 25000 nM. Also, the TGI with OVCAR-8 ovarian, with CAKI-1 renal, in the test with ACHN renal, with OVCAR-5 ovarian, in the test with MALME-3M melanoma and with BT-549 breast was above 100 µM in each case. The TGI with MDA-MB-231 breast and with SK-MEL-2 melanoma was above 100 µM throughout.
Regarding `CCCCCCCCCCCCCCCCCCOc1ccccc1CC(=O)OCC[N+](CC)(CC)CC`, the GI50 in the test on OVCAR-8 ovarian is 1690 nM; with CAKI-1 renal, 1420 nM; in the test on ACHN renal, 4390 nM; in the test with OVCAR-5 ovarian it was 2000 nM; in the test on MALME-3M melanoma it was 1310 nM; with BT-549 breast it was 1950 nM. Moreover, the GI50 was 1050 nM in the test on MDA-MB-231 breast and 1280 nM in the test on SK-MEL-2 melanoma. In addition, the TGI in the test with OVCAR-8 ovarian was found to be 8.3 µM; in the test on CAKI-1 renal it was 4.47 µM; in the test with ACHN renal, 11.3 µM; in the test on OVCAR-5 ovarian it was 8.52 µM; in the test on MALME-3M melanoma it was 3.77 µM; with BT-549 breast, 9.22 µM. The TGI in the test with MDA-MB-231 breast stood at 2.7 µM; in the test with SK-MEL-2 melanoma it was 3.13 µM.
